In one assay the target is T1, Human Factor XIIa (Homo sapiens, UniProt P00748).
T1 construct: purchased Enzyme Research Laboratories
T1 sequence (P00748 373-615 limits assumed): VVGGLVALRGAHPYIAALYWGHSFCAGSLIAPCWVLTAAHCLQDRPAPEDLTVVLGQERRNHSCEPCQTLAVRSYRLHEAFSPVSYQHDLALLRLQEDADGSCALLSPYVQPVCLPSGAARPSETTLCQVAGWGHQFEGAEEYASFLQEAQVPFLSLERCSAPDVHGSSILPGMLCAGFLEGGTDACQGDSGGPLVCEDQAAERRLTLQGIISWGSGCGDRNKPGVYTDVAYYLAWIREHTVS
T1 sequence (P00748 20-372 partner limits assumed): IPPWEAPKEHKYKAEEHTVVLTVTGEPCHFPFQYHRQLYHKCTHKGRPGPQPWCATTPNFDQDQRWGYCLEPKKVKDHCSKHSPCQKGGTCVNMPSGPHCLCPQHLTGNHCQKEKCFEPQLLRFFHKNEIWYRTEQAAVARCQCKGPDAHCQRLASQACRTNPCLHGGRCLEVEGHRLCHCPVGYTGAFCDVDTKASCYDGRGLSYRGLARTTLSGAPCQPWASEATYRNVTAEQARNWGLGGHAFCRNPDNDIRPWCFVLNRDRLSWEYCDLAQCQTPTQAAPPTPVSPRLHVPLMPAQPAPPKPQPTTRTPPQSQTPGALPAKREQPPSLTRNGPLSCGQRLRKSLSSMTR
Kind of assay: Determination of FXIIa inhibition (in vitro IC50 assay, fluorogenic substrate H-DPro-Phe-Arg-AFC). In kind it is biochemical. The note with it: human Factor XIIa; fluorogenic substrate H-DPro-Phe-Arg-AFC at Km concentration; 5 min, 25 °C; class symbols H1/H2 for % inhibition at top concentration. The protocol:
In vitro inhibition of Factor XIIa was determined using an IC50 assay based on standard literature methods (see e.g Baeriswyl et al., ACS Chem. Biol., 2015, 10 (8) 1861; Bouckaert et al., European Journal of Medicinal Chemistry 110 (2016) 181). Human Factor XIIa (Enzyme Research Laboratories) was incubated at 25 °C with the fluorogenic substrate H-DPro-Phe-Arg-AFC (Peptide Protein Science) and various concentrations of the test compound. Protease activity was measured by monitoring the accumulation of liberated fluorescence from the substrate over 5 min at 25 °C. The linear rate of fluorescence increase per minute was expressed as percentage (%) activity. The Km for the cleavage of the substrate by FXIIa was determined by standard transformation of the Michaelis-Menten equation. The compound inhibitor assays were performed at substrate Km concentration. IC50 values were calculated as the concentration of inhibitor giving 50% inhibition (IC50) of the uninhibited enzyme activity (100%).
On to `Cc1cc(OCC23CN(C(=O)NC4(c5ccccc5)CC4)C(CNc4cccnc4F)(C2)C3)cc(=O)n1C` [Example 67, 4-(((1,6-dimethyl-2-oxo-1,2-dihydropyridin-4-yl)oxy)methyl)-1-(((2-fluoropyridin-3-yl)amino)methyl)-N-(1-phenylcyclopropyl)-2-azabicyclo[2.1.1]hexane-2-carboxamide], for which the “Human FXIIa inhibition (compounds that did not achieve 50% inhibition)” value is on record as “H2 (>20% inhibition @ 100 μM)”.

For `Cc1cc(OCC23CN(C(=O)NC4(c5ccccc5)CC4)C(CNc4cccnc4)(C2)C3)cc(=O)n1C` [Example 55, 4-(((1,6-dimethyl-2-oxo-1,2-dihydropyridin-4-yl)oxy)methyl)-N-(1-phenylcyclopropyl)-1-((pyridin-3-ylamino)methyl)-2-azabicyclo[2.1.1]hexane-2-carboxamide], the “Human FXIIa inhibition (compounds that did not achieve 50% inhibition)” value is recorded as “H2 (>20% inhibition @ 100 μM)”.

Still in this assay, the particulars now being: human Factor XIIa; fluorogenic substrate H-DPro-Phe-Arg-AFC at Km concentration; 5 min, 25 °C; class symbols; read-out: Human FXIIa IC50.
For orientation: IC50 means the point on the concentration scale where inhibition reaches its midpoint. In the case of `Cc1cc(OCC23CN(C(=O)CC4CCC(F)(F)CC4)C(CNc4cccc5c(N)nccc45)(C2)C3)cc(=O)n1C` [Example 23, 4-((1-(((1-aminoisoquinolin-5-yl)amino)methyl)-2-(2-(4,4-difluorocyclohexyl)acetyl)-2-azabicyclo[2.1.1]hexan-4-yl)methoxy)-1,6-dimethylpyridin-2(1H)-one], the IC50 is 10 to 100 nM.

For the compound `Cc1cc(OCC23CN(C(=O)NC4(c5ccccc5)CC4)C(CNc4cccc5c(N)nccc45)(C2)C3)cc(=O)n1C` [Example 57, 1-(((1-aminoisoquinolin-5-yl)amino)methyl)-4-(((1,6-dimethyl-2-oxo-1,2-dihydropyridin-4-yl)oxy)methyl)-N-(1-phenylcyclopropyl)-2-azabicyclo[2.1.1]hexane-2-carboxamide], the 50% inhibitory concentration (IC50) lay in the range of 1 to 10 nM.

Consider `Cn1ccc(OCC23CN(C(=O)C(C)(C)Cc4ccccc4)C(CNc4cccc5c(N)nccc45)(C2)C3)cc1=O` [Example 7, 4-((1-(((1-aminoisoquinolin-5-yl)amino)methyl)-2-(2,2-dimethyl-3-phenylpropanoyl)-2-azabicyclo[2.1.1]hexan-4-yl)methoxy)-1-methylpyridin-2(1H)-one], for which the IC50 is 100 to 300 nM.

With `Cc1cc(OCC23CN(C(=O)N4CC(C5CCOCC5)C4)C(CNc4cccc5c(N)nccc45)(C2)C3)cc(=O)n1C` [Example 72, 4-((1-(((1-aminoisoquinolin-5-yl)amino)methyl)-2-(3-(tetrahydro-2H-pyran-4-yl)azetidine-1-carbonyl)-2-azabicyclo[2.1.1]hexan-4-yl)methoxy)-1,6-dimethylpyridin-2(1H)-one], the IC50 lay in the range of 10 to 100 nM.

With `Cc1cc(OCC23CN(c4ccc(C5CC5)nc4)C(CNc4cccc5c(N)nccc45)(C2)C3)cc(=O)n1C` [Example 94, 4-((1-(((1-aminoisoquinolin-5-yl)amino)methyl)-2-(6-cyclopropylpyridin-3-yl)-2-azabicyclo[2.1.1]hexan-4-yl)methoxy)-1,6-dimethylpyridin-2(1H)-one], the IC50 fell in the range of 10 to 100 nM.

Regarding `Cn1ccc(OCC23CN(C(=O)C4(Oc5ccccc5)CC4)C(CNc4cccc5c(N)nccc45)(C2)C3)cc1=O` [Example 6, 4-((1-(((1-aminoisoquinolin-5-yl)amino)methyl)-2-(1-phenoxycyclopropane-1-carbonyl)-2-azabicyclo[2.1.1]hexan-4-yl)methoxy)-1-methylpyridin-2(1H)-one], the IC50 fell in the range of 100 to 300 nM.

`Nc1nccc2c(NCC34CC(CN5C(=O)CC[C@H]5c5ccccc5)(CO3)C4)cccc12` [Example 2, (S)-1-((1-(((1-aminoisoquinolin-5-yl)amino)methyl)-2-oxabicyclo[2.1.1]hexan-4-yl)methyl)-5-phenylpyrrolidin-2-one]: the IC50 lay within 3000 to 10000 nM.

On to `Cn1ccc(OCC23CN(C(=O)NC4(c5ccccc5)CCOCC4)C(CNc4cccc5c(N)nccc45)(C2)C3)cc1=O` [Example 64, 1-(((1-aminoisoquinolin-5-yl)amino)methyl)-4-(((1-methyl-2-oxo-1,2-dihydropyridin-4-yl)oxy)methyl)-N-(4-phenyltetrahydro-2H-pyran-4-yl)-2-azabicyclo[2.1.1]hexane-2-carboxamide], for which the IC50 fell in the range of 10 to 100 nM.

In the case of `C[C@H](c1ccccc1)N(C)C(=O)N1CC2(COc3ccn(C)c(=O)c3)CC1(CNc1cccc3c(N)nccc13)C2` [Example 43, (R)-1-(((1-aminoisoquinolin-5-yl)amino)methyl)-N-methyl-4-(((1-methyl-2-oxo-1,2-dihydropyridin-4-yl)oxy)methyl)-N-(1-phenylethyl)-2-azabicyclo[2.1.1]hexane-2-carboxamide], the IC50 is 1 to 10 nM.

On to `Cc1cc(OCC23CN(C(=O)N(C)C4COc5ccccc54)C(CNc4cccc5c(N)nccc45)(C2)C3)cc(=O)n1C` (centres unmarked) [Example 90, 1-(((1-Aminoisoquinolin-5-yl)amino)methyl)-N-(2,3-dihydrobenzofuran-3-yl)-4-(((1,6-dimethyl-2-oxo-1,2-dihydropyridin-4-yl)oxy)methyl)-N-methyl-2-azabicyclo[2.1.1]hexane-2-carboxamide], for which the half-maximal inhibitory concentration (IC50) lay within 1 to 10 nM.

For the compound `Cn1ccc(OCC23CN(C(=O)NCCCOCc4ccccc4)C(CNc4cccc5c(N)nccc45)(C2)C3)cc1=O` [Example 82, 1-(((1-aminoisoquinolin-5-yl)amino)methyl)-N-(3-(benzyloxy)propyl)-4-(((1-methyl-2-oxo-1,2-dihydropyridin-4-yl)oxy)methyl)-2-azabicyclo[2.1.1]hexane-2-carboxamide], the IC50 is 10 to 100 nM.

As to `Cc1cc(OCC23CN(C(=O)N4CCC5(CCOCC5)C4)C(CNc4cccc5c(N)nccc45)(C2)C3)cc(=O)n1C` [Example 83, 4-((1-(((1-aminoisoquinolin-5-yl)amino)methyl)-2-(8-oxa-2-azaspiro[4.5]decane-2-carbonyl)-2-azabicyclo[2.1.1]hexan-4-yl)methoxy)-1,6-dimethylpyridin-2(1H)-one], the IC50 fell in the range of 10 to 100 nM.

For `Cn1ccc(OCC23CN(C(=O)NCC4CCOCC4)C(CNc4cccc5c(N)nccc45)(C2)C3)cc1=O` [Example 77, 1-(((1-aminoisoquinolin-5-yl)amino)methyl)-4-(((1-methyl-2-oxo-1,2-dihydropyridin-4-yl)oxy)methyl)-N-((tetrahydro-2H-pyran-4-yl)methyl)-2-azabicyclo[2.1.1]hexane-2-carboxamide], the IC50 lay in the range of 10 to 100 nM.

For the compound `COc1ccc2c(c1)CCCN2C(=O)N1CC2(COc3ccn(C)c(=O)c3)CC1(CNc1cccc3c(N)nccc13)C2` [Example 39, 4-((1-(((1-aminoisoquinolin-5-yl)amino)methyl)-2-(6-methoxy-1,2,3,4-tetrahydroquinoline-1-carbonyl)-2-azabicyclo[2.1.1]hexan-4-yl)methoxy)-1-methylpyridin-2(1H)-one], the 50% inhibitory concentration (IC50) lay in the range of 100 to 300 nM.

Regarding `CC(C(=O)N1CC2(COc3ccn(C)c(=O)c3)CC1(CNc1cccc3c(N)nccc13)C2)c1ccc2c(c1)CCO2` (centres unmarked) [Example 27, 4-((1-(((1-aminoisoquinolin-5-yl)amino)methyl)-2-(2-(2,3-dihydrobenzofuran-5-yl)propanoyl)-2-azabicyclo[2.1.1]hexan-4-yl)methoxy)-1-methylpyridin-2(1H)-one], the IC50 was in the range of 10 to 100 nM.

As to `Cn1ccc(OCC23CC(CNc4cccc5c(N)nccc45)(CN2C(=O)CC2CCCCC2)C3)cc1=O` [Example 103, 4-((4-(((1-aminoisoquinolin-5-yl)amino)methyl)-2-(2-cyclohexylacetyl)-2-azabicyclo[2.1.1]hexan-1-yl)methoxy)-1-methylpyridin-2(1H)-one], the IC50 was in the range of 300 to 1000 nM.

As for `Cc1cc(OCC23CN(C(=O)CC45CCC(CC4)C5)C(CNc4cccc5c(N)nccc45)(C2)C3)cc(=O)n1C` [Example 22, 4-((1-(((1-aminoisoquinolin-5-yl)amino)methyl)-2-(2-(bicyclo[2.2.1]heptan-1-yl)acetyl)-2-azabicyclo[2.1.1]hexan-4-yl)methoxy)-1,6-dimethylpyridin-2(1H)-one], the IC50 was 10 to 100 nM.

For `Cc1cc(OCC23CN(C(=O)CC45CCC(CC4)CC5)C(CNc4cccc5c(N)nccc45)(C2)C3)cc(=O)n1C` [Example 21, 4-((1-(((1-aminoisoquinolin-5-yl)amino)methyl)-2-(2-(bicyclo[2.2.2]octan-1-yl)acetyl)-2-azabicyclo[2.1.1]hexan-4-yl)methoxy)-1,6-dimethylpyridin-2(1H)-one], the IC50 lay in the range of 10 to 100 nM.
